The values below come from PubChem BioAssay (NCI).

Several values for one entry are separate records, joined by “and”; a condition that tells them apart may be missing. Equal entries are not always repeated.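 Test compounds were applied to cells in 96-well plates for 48 hours at 5 doses. GI50 is the concentration that inhibits growth by half. Definition used: TGI = concentration required for complete inhibition of growth.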

Common to all, as to test: NCI tumour cell line growth inhibition, 48 h
The test system of experiment [1] is UACC-257 melanoma.
Experiment [2] deals with HT29 colon.
For experiment [3], the system named is SR leukemia.
Experiment [4] concerns NCI/ADR-RES ovarian.
Experiment [5] has as its system NCI-H460 lung.
Experiment [6] relates to RPMI-8226 leukemia.
The test system of experiment [7] is SK-MEL-2 melanoma.
Experiment [8] concerns MOLT-4 leukemia.
Experiment [9] concerns NCI-H23 lung.
The subject of experiment [10] is A549 NSCLC.

As to `O=C(c1cccc(O)c1O)c1cn(Cc2ccc(F)cc2)c2cccc(O)c12`, the GI50 in [1] is 4.44 µM; in experiment [2], 7.43 µM; in experiment [3], 0.867 µM; in [4], 2.59 µM; in experiment [5], 2.01 µM; in [6], 0.564 µM. Further, the GI50 is 7.93 µM in [7], 0.84 µM in [8], 4.12 µM in [9] and 3.31 µM in experiment [10]. For the same compound, the TGI in experiment [1] is 14.3 µM; in experiment [2], 23.4 µM; in experiment [3], 7.81 µM; in experiment [4], 15.2 µM; in experiment [5], 11 µM; in [6] it was 6.99 µM. The TGI in experiment [7] was 23.2 µM; in experiment [8], 10.3 µM; in experiment [9], 19.8 µM; in experiment [10], 16.7 µM.

As to `CCN1C(=O)CNc2ncc(-c3ccc(-c4ncn[nH]4)nc3C)nc21`, the GI50 in [1] is 0.184 µM; in experiment [2], 0.317 µM; in experiment [3] it was 0.253 µM; in experiment [4], 0.284 µM; in experiment [5] it was 0.118 µM; in experiment [6], 0.0454 µM. In addition, the GI50 was 0.162 µM in experiment [7], 0.139 µM in experiment [8], 0.238 µM in experiment [9] and 0.263 µM in experiment [10]. Further, the TGI in experiment [1] amounted to 2.11 µM; in experiment [2] it was 11.6 µM; in [3] it was 4.09 µM; in [4], 3.58 µM; in experiment [5], 11.3 µM; in experiment [6], 0.553 µM. Besides, the TGI was 0.711 µM in [7], 1.54 µM in [8], 8.27 µM in experiment [9] and 7.24 µM in experiment [10].

As for `COc1ccc(OC)c(/C=C/C(=O)N/N=C/c2ccc(Cl)cc2)c1`, the GI50 was 36.5 µM in experiment [1]; 0.0388 µM in experiment [2]; 0.0389 µM in [3]; 0.0364 µM in [4]; 0.0704 µM in [5]; 0.286 µM in [6]. The GI50 in experiment [7] was 1.06 µM; in experiment [8] it was 0.213 µM; in experiment [9], 0.105 µM; in experiment [10], 0.242 µM. The TGI is > 100 µM in experiment [1]; 4.65 µM in experiment [2]; 16.4 µM in [3]; 0.215 µM in experiment [4]; > 37.1 µM in [5]; > 39.6 µM in [6]. Besides, the TGI in experiment [7], in [8] and in experiment [10] was > 100 µM each time.

With `CCc1[nH]c(=O)nc(N)c1-c1ccc(N2CCCCC2)c([N+](=O)[O-])c1`, the TGI in [1], in [2], in experiment [3], in experiment [4], in experiment [5] and in [6] was > 100 µM each time. For the same compound, the TGI in experiment [7], in [8], in experiment [9] and in experiment [10] was > 100 µM in each case.

`CCC1(O)C(=O)OCc2c1cc1n(c2=O)Cc2cc3ccc(C=O)cc3nc2-1` (stereo unspecified): the GI50 in experiment [1] is 7.73 µM; in experiment [3] it was 0.0647 µM; in experiment [4], 1.33 µM; in experiment [5], 0.301 µM; in experiment [7], 17.6 µM; in [8], 0.209 µM. Moreover, the results for the GI50 in experiment [9] and in [10] were 0.816 µM and 7.43 µM, respectively. The TGI in experiment [1] is 23.7 µM and 43.7 µM; in experiment [2], 16.5 µM and > 89 µM; in experiment [4], 6.73 µM and 12.6 µM; in experiment [5], 6.59 µM and 26.4 µM; in [6] it was 30.4 µM; in experiment [7] it was 40.6 µM and 39.2 µM. In addition, the TGI in [8] was 1.78 µM and 1.05 µM; in [9] it was 2.71 µM and 16.7 µM; in experiment [10], 50 µM and 18.8 µM.

Turning to `CC/C=C\C[C@@H]1C/C=C2/C(=O)C=C[C@H]2C/C=C\CCCC(=O)O1`, the GI50 in [1] was 1.37 µM; in experiment [2] it was 0.267 µM; in experiment [3], 0.17 µM; in experiment [4], 0.349 µM; in experiment [5], 2.67 µM; in experiment [6], 0.331 µM. The GI50 in experiment [7] is 1.8 µM; in [8], 0.551 µM; in experiment [9], 0.993 µM; in [10] it was 0.526 µM. For the same compound, the TGI in experiment [1] came to 3.39 µM; in experiment [2], 0.677 µM; in experiment [3] it was 0.731 µM; in [4], 18.7 µM; in experiment [5] it was 7.45 µM; in experiment [6] it was 1.33 µM. Moreover, the TGI in experiment [7] was 4.23 µM; in experiment [8], 2.71 µM; in [9], 3.2 µM; in experiment [10] it was 2.2 µM.

In the case of `Cc1cc(C)c(C(=O)CC(=O)c2cccnc2)c(C)c1`, the GI50 in [1] was 27.2 µM; in experiment [2], 4.85 µM; in [3], 2.81 µM; in [4] it was 2.29 µM; in experiment [5], 3.39 µM; in experiment [6] it was 5.31 µM. Moreover, the GI50 was 17.3 µM in [7], 4.41 µM in [8], 11.1 µM in experiment [9] and 6.97 µM in experiment [10]. Moreover, the TGI in [1] was > 100 µM; in experiment [2], > 100 µM; in [3], 33.2 µM; in [4], 9.88 µM; in experiment [5], 82.9 µM; in [6], > 100 µM. In addition, the TGI was > 100 µM in experiment [7], 38.4 µM in [8], > 100 µM in experiment [9] and > 100 µM in [10].

For the compound `Nc1ncc(-c2cnn(CCO)c2)c2scc(-c3ccc(NC(=O)Nc4cccc(F)c4)cc3)c12`, the GI50 was 0.287 µM in [1]; 0.283 µM in [2]; < 0.01 µM in experiment [3]; 2.5 µM in [4]; < 0.0355 µM in experiment [5]; 0.454 µM in experiment [6]. Besides, the GI50 in experiment [7] was 0.364 µM; in experiment [8], < 0.0226 µM; in [9], 0.211 µM; in experiment [10], 0.125 µM. Moreover, the TGI in experiment [1] came out at 1.89 µM; in [2], 2.07 µM; in experiment [3] it was 1.26 µM; in experiment [4] it was 20.1 µM; in [5], 4.21 µM; in [6], 2.81 µM. The TGI in experiment [7] came out at 1.66 µM; in [8], 2.34 µM; in [9] it was 2.3 µM; in experiment [10] it was 1.5 µM.
